From US20140221374A1, “RAF KINASE INHIBITORS” (Ruga Corporation, priority 2011, published 2014) come the findings set out here.

The target of one assay is V600E-mutated B-RAF (Homo sapiens, UniProt P15056, V600E). Put plainly: In vitro assay for inhibition of mutant B-RAF kinase (recombinant V600E-mutated B-RAF, MEK (K97R) substrate). It counts as biochemical. The note with it: 10 nM recombinant V600E-mutated B-RAF. The protocol:
(§1) The ability of compounds described herein to inhibit RAF kinase activity were determined from biochemical kinase inhibition assays using recombinant RAF proteins as known in the art.
Solutions of varying concentrations of test compounds or vehicle were added to 10 nM recombinant V600E-mutated B-RAF proteins incubated in the presence of different concentrations of ATP and […] (K97R) as substrate, as previously described (Wilhelm, S. M., et al., Cancer Res., 64: 7099-7109, 2004; Mason, C. S., et al.; EMBO J. 18: 2137-2.148, 1999; Marais, R., et al., J. Biol. Chem., 272: 4378-4383, 1997). At least triplicate determinations for each individual test compound concentration were made and data plotted as mean±standard deviation relative to the control vehicle.

For a further assay, the target named is wild-type C-RAF (Homo sapiens, UniProt P04049). Kind of assay: In vitro assay for inhibition of RAF kinases (recombinant wild-type C-RAF, MEK (K97R) substrate). It counts as biochemical. The following applies: 10 nM recombinant wild-type C-RAF. The method, then:
as §1
Solutions of varying concentrations of test compounds or vehicle were added to 10 nM recombinant wild-type A-RAF, wild-type B-RAF, or wild-type C-RAF proteins incubated in the presence of different concentrations of ATP and 1 μM MEK (K97R) as substrate, as previously described (Wilhelm, S. M., et al., Cancer Res., 64: 7099-7109, 2004; Mason, C S., et al., EMBO J. 18: 2137-2148, 1999; Marais, R., et al., J. Biol. Chem., 272: 4378-4383, 1997). At least triplicate determinations for each individual test compound concentration were made and data plotted as mean±standard deviation relative to the control vehicle.

Assay [1] has as its system A375 cells (V600E activated B-RAF). Put plainly: In vitro tumor cell growth inhibition, MTT, 72 hours. It counts as cell-based. The note with it: Homo sapiens, A-375, 72 hours incubation. The protocol: Briefly, growth inhibition of cells containing V600E activated B-RAF (A375, Colo205) versus cell lines with wild-type B-RAF (A431) were measured under anchorage-dependent conditions using MTT (3-(4,5-dimethylthiazol-2-yl)-2,5-diphenyltetrazolium bromide), following 72 hours incubation with either compound or vehicle, as previously described (Haass, N. K., et al., Clinical Cancer Res., 14: 230-239, 2008): Cell lines are obtained from the American Type Tissue Culture Collection (Maryland, USA) and cultured in media containing heat-inactivated 10% fetal bovine serum. Cell cultures were also maintained in 10 U/mL, penicillin, 100 μg/mL streptomycin and 2 mM glutamine. At least triplicate determinations for each individual test compound concentration were made and data plotted as mean±standard deviation relative to the control vehicle.

Sequence of V600E-mutated B-RAF (P15056 whole entry V600E): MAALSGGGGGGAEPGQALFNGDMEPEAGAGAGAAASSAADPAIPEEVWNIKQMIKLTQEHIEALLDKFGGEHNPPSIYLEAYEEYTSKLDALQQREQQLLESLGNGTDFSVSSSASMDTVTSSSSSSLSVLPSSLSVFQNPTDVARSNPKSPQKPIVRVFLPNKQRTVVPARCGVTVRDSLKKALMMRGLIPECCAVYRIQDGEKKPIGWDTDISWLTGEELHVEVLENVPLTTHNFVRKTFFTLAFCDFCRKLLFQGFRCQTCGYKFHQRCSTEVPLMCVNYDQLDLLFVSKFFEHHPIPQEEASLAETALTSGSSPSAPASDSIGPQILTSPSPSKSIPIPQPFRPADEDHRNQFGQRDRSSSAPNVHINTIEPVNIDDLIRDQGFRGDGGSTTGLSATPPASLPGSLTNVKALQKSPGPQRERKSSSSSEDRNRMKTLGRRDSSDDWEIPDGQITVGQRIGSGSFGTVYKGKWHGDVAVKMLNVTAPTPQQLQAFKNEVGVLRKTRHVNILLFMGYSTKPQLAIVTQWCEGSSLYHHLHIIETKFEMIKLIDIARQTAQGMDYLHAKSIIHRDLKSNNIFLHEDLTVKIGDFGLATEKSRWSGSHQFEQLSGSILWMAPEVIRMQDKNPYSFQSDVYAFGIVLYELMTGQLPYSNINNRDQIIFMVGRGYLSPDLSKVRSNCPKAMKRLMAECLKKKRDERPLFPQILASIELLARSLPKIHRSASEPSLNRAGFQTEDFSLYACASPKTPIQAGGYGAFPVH
Sequence of wild-type C-RAF (P04049 whole entry): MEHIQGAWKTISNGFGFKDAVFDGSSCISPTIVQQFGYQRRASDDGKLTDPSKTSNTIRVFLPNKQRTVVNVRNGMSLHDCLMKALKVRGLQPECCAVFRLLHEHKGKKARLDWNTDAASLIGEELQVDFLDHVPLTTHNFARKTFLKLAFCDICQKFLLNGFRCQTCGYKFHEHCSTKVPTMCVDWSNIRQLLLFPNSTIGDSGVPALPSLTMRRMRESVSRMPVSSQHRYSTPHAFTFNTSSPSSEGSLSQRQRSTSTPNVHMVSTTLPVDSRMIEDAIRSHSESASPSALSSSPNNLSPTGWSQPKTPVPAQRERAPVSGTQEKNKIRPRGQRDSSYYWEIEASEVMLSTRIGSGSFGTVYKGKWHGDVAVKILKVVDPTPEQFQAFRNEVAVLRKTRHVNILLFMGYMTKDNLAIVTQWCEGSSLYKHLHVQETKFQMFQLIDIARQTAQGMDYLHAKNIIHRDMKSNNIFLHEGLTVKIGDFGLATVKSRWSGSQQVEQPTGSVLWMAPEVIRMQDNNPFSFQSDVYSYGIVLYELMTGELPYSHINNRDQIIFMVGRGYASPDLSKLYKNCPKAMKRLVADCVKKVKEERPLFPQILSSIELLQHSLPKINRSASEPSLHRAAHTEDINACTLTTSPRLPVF

As to `Cc1ccc(NC(=O)Nc2cccc(-c3sc(C)nc3-c3ccncc3)c2)cc1` [Example 1, 1-[3-(2-Methyl-4-pyridin-4-yl-thiazol-5-yl)-phenyl]-3-p-tolyl-urea], the IC50 (as a rule, the point on the concentration scale where inhibition reaches its midpoint) is at most 0.1 µM at V600E-mutated B-RAF, 1 to 10 µM at wild-type C-RAF and over 10 µM in assay [1].

As to `CCn1cc(-c2cccc(NC(=O)Nc3ccc(C(F)(F)F)cc3)c2F)c(-c2ccncc2)n1` [Example 50, 1-(3-(1-ethyl-3-(pyridin-4-yl)-1H-pyrazol-4-yl)-2-fluorophenyl)-3-(4-(trifluoromethyl)phenyl)urea], the IC50 is at most 0.1 µM on V600E-mutated B-RAF, 1 to 10 µM at wild-type C-RAF and 0.1 to 1 µM in assay [1].
